target: human capsaicin receptor (VR1) (Homo sapiens, UniProt Q8NER1); assay: Capsaicin receptor binding assay ([3H]RTX competition, VR1-transfected HEK293 membranes)
Sequence (Q8NER1 whole entry): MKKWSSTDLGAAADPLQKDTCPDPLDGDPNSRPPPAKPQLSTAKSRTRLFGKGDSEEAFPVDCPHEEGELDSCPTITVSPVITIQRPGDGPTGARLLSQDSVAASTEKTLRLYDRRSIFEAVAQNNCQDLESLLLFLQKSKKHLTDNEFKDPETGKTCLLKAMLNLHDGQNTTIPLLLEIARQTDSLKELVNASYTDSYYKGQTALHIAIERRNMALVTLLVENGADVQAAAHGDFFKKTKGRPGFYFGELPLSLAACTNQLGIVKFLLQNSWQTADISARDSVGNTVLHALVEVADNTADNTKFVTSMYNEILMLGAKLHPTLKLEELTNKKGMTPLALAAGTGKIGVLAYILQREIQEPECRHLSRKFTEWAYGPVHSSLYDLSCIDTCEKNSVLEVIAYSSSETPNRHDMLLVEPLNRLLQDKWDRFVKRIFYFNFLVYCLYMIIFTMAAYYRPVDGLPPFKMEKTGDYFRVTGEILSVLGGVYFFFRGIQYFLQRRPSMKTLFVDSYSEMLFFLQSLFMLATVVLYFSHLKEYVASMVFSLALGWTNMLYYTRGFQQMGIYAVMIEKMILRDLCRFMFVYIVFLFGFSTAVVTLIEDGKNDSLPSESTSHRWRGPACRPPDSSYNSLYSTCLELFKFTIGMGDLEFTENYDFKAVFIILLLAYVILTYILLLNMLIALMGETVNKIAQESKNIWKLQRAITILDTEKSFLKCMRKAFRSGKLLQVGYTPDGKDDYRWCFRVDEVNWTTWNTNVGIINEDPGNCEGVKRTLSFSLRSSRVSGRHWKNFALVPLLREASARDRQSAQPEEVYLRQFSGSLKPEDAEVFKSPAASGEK

Ki, < 1000 nM:
CCCCN(CCCC)CCc1nc(Nc2ccc(C(F)(F)F)cc2)c2ccc(-c3ncccc3C(F)(F)F)cc2n1 [Compound 420, [2-Dibutylaminoethyl-7-(3-trifluoromethyl-pyridin-2-yl)-quinazolin-4-yl]-(4-trifluoromethyl-phenyl)-amine]
CCOC(=O)C1CCCN(Cc2nc(Nc3ccc(C(F)(F)F)nc3)c3ccc(-c4ncccc4C(F)(F)F)cc3n2)C1 (stereo not drawn) [Compound 488, 1-[7-(3-Trifluoromethyl-pyridin-2-yl)-4-(6-trifluoromethyl-pyridin-3-ylamino)-quinazolin-2-ylmethyl]-piperidine-3-carboxylic acid ethyl ester]
CCN(CC)C(=O)C(C)(C)c1ccc(Nc2nc(COCC(C)C)nc3nc(-c4ncccc4C)ccc23)cc1 [Compound 222, N,N-Diethyl-2-{4-[2-isobutoxymethyl-7-(3-methyl-pyridin-2-yl)-pyrido[2,3-d]pyrimidin-4-ylamino]-phenyl}-isobutyramide]
C=CCN(C)Cc1nc(Nc2ccc(C(F)(F)F)cc2)c2ncc(-c3ncccc3C(F)(F)F)cc2n1 [Compound 662, [2-[(Allyl-methyl-amino)-methyl]-7-(3-trifluoromethyl-pyridin-2-yl)-pyrido[3,2-d]pyrimidin-4-yl]-(4-trifluoromethyl-phenyl)-amine]
C[C@@H]1CN(Cc2cc(Nc3ccc(C(F)(F)F)cc3)c3ccc(-c4ncccc4C(F)(F)F)nc3n2)C[C@H](C)O1 [Compound 773, [2-(2,6-Dimethyl-morpholin-4-ylmethyl)-7-(3-trifluoromethyl-pyridin-2-yl)-[1,8]naphthyridin-4-yl]-(4-trifluoromethyl-phenyl)-amine (cis)]
COCCN(CCOC)Cc1nc(Nc2ccc(C(F)(F)F)nc2)c2ccc(-c3ncccc3C(F)(F)F)cc2n1 [Compound 384, [2-{[Bis-(2-methoxy-ethyl)-amino]-methyl}-7-(3-trifluoromethyl-pyridin-2-yl)-quinazolin-4-yl]-(6-trifluoromethyl-pyridin-3-yl)-amine]
CCC1CCCCN1Cc1nc(Nc2ccc(C(F)(F)F)nc2)c2ccc(-c3ncccc3C(F)(F)F)cc2n1 (stereo not drawn) [Compound 382, [2-(2-Ethyl-piperidin-1-ylmethyl)-7-(3-trifluoromethyl-pyridin-2-yl)-quinazolin-4-yl]-(6-trifluoromethyl-pyridin-3-yl)-amine]
CC(C)c1ccc(Nc2nc(CN3C[C@@H](C)O[C@H](C)C3)nc3cc(-c4ncccc4C(F)(F)F)ccc23)cc1 [Compound 652, (R,R)-[2-(2,6-Dimethyl-morpholin-4-ylmethyl)-7-(3-trifluoromethyl-pyridin-2-yl)-quinazolin-4-yl]-(4-isopropyl-phenyl)-amine]
C[C@H]1CN(Cc2nc(Nc3ccc(C(C)(C)C)nc3)c3ccc(-c4ncccc4C(F)(F)F)cc3n2)C[C@H](C)O1 [Compound 609, (S,S)-(6-tert-Butyl-pyridin-3-yl)-[2-(2,6-dimethyl-morpholin-4-ylmethyl)-7-(3-trifluoromethyl-pyridin-2-yl)-quinazolin-4-yl]-amine]
COCc1nc(Nc2ccc(C(C)(C)C)nc2)c2ccc(-c3ncccc3C(F)(F)F)cc2n1 [Compound 74, (6-tert-Butyl-pyridin-3-yl)-[2-methoxymethyl-7-(3-trifluoromethyl-pyridin-2-yl)-quinazolin-4-yl]-amine]
CC1CCCCN1CCc1nc(Nc2ccc(C(F)(F)F)cc2)c2ccc(-c3ncccc3C(F)(F)F)cc2n1 (stereo not drawn) [Compound 422, [2-(2-Methyl-piperidin-1-ylethyl)-7-(3-trifluoromethyl-pyridin-2-yl)-quinazolin-4-yl]-(4-trifluoromethyl-phenyl)-amine]
CN1CCC(OCc2nc(Nc3ccc(C(F)(F)F)nc3)c3ccc(-c4ncccc4C(F)(F)F)cc3n2)CC1 [Compound 31, [2-(1-Methyl-piperidin-4-yloxymethyl)-7-(3-trifluoromethyl-pyridin-2-yl)-quinazolin-4-yl]-(6-trifluoromethyl-pyridin-3-yl)-amine]
CC(C)c1ccc(Nc2nc(CN3C[C@H](C)O[C@@H](C)C3)nc3cc(-c4ncccc4Cl)ccc23)cc1 [Compound 650, (S,S)-[7-(3-Chloro-pyridin-2-yl)-2-(2,6-dimethyl-morpholin-4-ylmethyl)-quinazolin-4-yl]-(4-isopropyl-phenyl)-amine]
C[C@@H]1CN(Cc2nc(Nc3ccc(C(C)(C)C)cc3)c3ncc(-c4ncccc4Cl)cc3n2)C[C@H](C)O1 [Compound 633, (4-tert-Butyl-phenyl)-[7-(3-chloro-pyridin-2-yl)-2-(2,6-dimethyl-morpholin-4-ylmethyl)-pyrido[3,2-d]pyrimidin-4-yl]-amine (cis)]
CCCS(=O)(=O)c1ccc(Nc2nc(CN3C[C@@H](C)O[C@@H](C)C3)nc3cc(-c4ncccc4C(F)(F)F)cnc23)cc1 [Compound 594, [2-(2,6-Dimethyl-morpholin-4-ylmethyl)-7-(3-trifluoromethyl-pyridin-2-yl)-pyrido[3,2-d]pyrimidin-4-yl]-[4-(propane-1-sulfonyl)-phenyl]-amine (cis)]
CCCc1ccc(Nc2nc(COCC(C)C)nc3nc(-c4ncccc4Cl)ccc23)cc1 [Compound 266, [7-(3-Chloro-pyridin-2-yl)-2-isobutoxymethyl-pyrido[2,3-d]pyrimidin-4-yl]-(4-propyl-phenyl)-amine]
CCCCCCNCc1nc(Nc2ccc(C(F)(F)F)cc2)c2ccc(-c3ncccc3C(F)(F)F)cc2n1 [Compound 539, [2-Hexylaminomethyl-7-(3-trifluoromethyl-pyridin-2-yl)-quinazolin-4-yl]-(4-trifluoromethyl-phenyl)-amine]
O=C(O)[C@@H]1CCCN1Cc1nc(Nc2ccc(C(F)(F)F)cc2)c2ccc(-c3ncccc3C(F)(F)F)nc2n1 [Compound 751, (S)-1-[4-(4-Trifluoromethyl-phenylamino)-7-(3-trifluoromethyl-pyridin-2-yl)-pyrido[2,3-d]pyrimidin-2-ylmethyl]-pyrrolidine-2-carboxylic acid]
CN(CCc1nc(Nc2ccc(C(F)(F)F)cc2)c2ccc(-c3ncccc3C(F)(F)F)cc2n1)Cc1ccccc1F [Compound 396, [2-{2-[(2-Fluoro-benzyl)-methyl-amino]-ethyl}-7-(3-trifluoromethyl-pyridin-2-yl)-quinazolin-4-yl]-(4-trifluoromethyl-phenyl)-amine]
FC(F)(F)c1ccc(Nc2nc(Cn3ccnc3)nc3cc(-c4ncccc4C(F)(F)F)cnc23)cc1 [Compound 699, [2-Imidazol-1-ylmethyl-7-(3-trifluoromethyl-pyridin-2-yl)-pyrido[3,2-d]pyrimidin-4-yl]-(4-trifluoromethyl-phenyl)-amine]
CC1CC(C)CC(NC(=O)c2nc(Nc3ccc(C(F)(F)F)cc3)c3ccc(-c4ncccc4C(F)(F)F)nc3n2)C1 (stereo not drawn) [Compound 470, 4-(4-Trifluoromethyl-phenylamino)-7-(3-trifluoromethyl-pyridin-2-yl)-pyrido[2,3-d]pyrimidine-2-carboxylic acid (3,5-dimethyl-cyclohexyl)-amide]
CC(C)(C)c1ccc(Nc2nc(CN3CCCCC3)nc3cc(-c4ncccc4C(F)(F)F)ccc23)cc1 [Compound 476, (4-tert-Butyl-phenyl)-[2-piperidin-1-ylmethyl-7-(3-trifluoromethyl-pyridin-2-yl)-quinazolin-4-yl]-amine]
CN1CCC(NC(=O)c2nc(Nc3ccc(C(F)(F)F)cc3)c3ccc(-c4ncccc4C(F)(F)F)nc3n2)CC1 [Compound 448, 4-(4-Trifluoromethyl-phenylamino)-7-(3-trifluoromethyl-pyridin-2-yl)-pyrido[2,3-d]pyrimidine-2-carboxylic acid (1-methyl-piperidin-4-yl)-amide]
COCCN(CCOC)Cc1nc(Nc2ccc(C(F)(F)F)cn2)c2ccc(-c3ncccc3C(F)(F)F)cc2n1 [Compound 521, [2-{[Bis-(2-methoxy-ethyl)-aminol]-methyl}-7-(3-trifluoromethyl-pyridin-2-yl)-quinazolin-4-yl]-(5-trifluoromethyl-pyridin-2-yl)-amine]
Cc1cc(Nc2nc(COCC(C)C)nc3nc(-c4ncccc4Cl)ccc23)ccc1C(F)(F)F [Compound 178, [7-(3-Chloro-pyridin-2-yl)-2-isobutoxymethyl-pyrido[2,3-d]pyrimidin-4-yl]-(3-methyl-4-trifluoromethyl-phenyl)-amine]
Cc1cccnc1-c1ccc2c(Nc3ccc(OC(F)(F)F)cc3)nc(COCC(C)C)nc2n1 [Compound 190, [2-Isobutoxymethyl-7-(3-methyl-pyridin-2-yl)-pyrido[2,3-d]pyrimidin-4-yl]-(4-trifluoromethoxy-phenyl)-amine]
COCc1nc(Nc2ccc(C(C)(C)C)cc2)c2ccc(-c3ncccc3C)nc2n1 [Compound 95, (4-tert-Butyl-phenyl)-[2-methoxymethyl-7-(3-methyl-pyridin-2-yl)-pyrido[2,3-d]pyrimidin-4-yl]-amine]
CC(C)(C)c1ccc(Nc2nc(CO)nc3cc(-c4ncccc4Cl)ccc23)cc1 [Compound 157, [4-(4-tert-Butyl-phenylamino)-7-(3-chloro-pyridin-2-yl)-quinazolin-2-yl]-methanol]
CC(c1ccccc1)N(C)CCc1nc(Nc2ccc(C(F)(F)F)cc2)c2ccc(-c3ncccc3C(F)(F)F)cc2n1 (stereo not drawn) [Compound 388, [2-{2-[Methyl-(1-phenyl-ethyl)-amino]-ethyl}-7-(3-trifluoromethyl-pyridin-2-yl)-quinazolin-4-yl]-(4-trifluoromethyl-phenyl)-amine]
CCOC(=O)N1CCN(Cc2nc(Nc3ccc(C(F)(F)F)nc3)c3ccc(-c4ncccc4C(F)(F)F)cc3n2)CC1 [Compound 483, 4-[7-(3-Trifluoromethyl-pyridin-2-yl)-4-(6-trifluoromethyl-pyridin-3-ylamino)-quinazolin-2-ylmethyl]-piperazine-1-carboxylic acid ethyl ester]
